The source made the active and inactive calls.
Assays:
Bcl-2-related protein A1 [1] = molecular target: T1, Bcl-2-related protein A1 (Mus musculus, UniProt Q07440); test: small-molecule antagonists of Bfl-1/BH3 interaction – biochemical, TR-FRET, mouse Bfl-1, confirmation (AID 621);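 note: TR-FRET binding of GST-Bfl-1 to FITC-labelled Bid peptide via terbium antibody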
T1 sequence (Q07440 whole entry): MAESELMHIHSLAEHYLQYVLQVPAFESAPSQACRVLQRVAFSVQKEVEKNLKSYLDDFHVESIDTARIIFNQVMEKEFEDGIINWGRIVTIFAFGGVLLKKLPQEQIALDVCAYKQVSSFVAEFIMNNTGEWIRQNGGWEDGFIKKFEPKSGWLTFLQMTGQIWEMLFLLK

[2] = molecular target: Glyceraldehyde-3-phosphate dehydrogenase (Homo sapiens, UniProt P04406)
Bcl-2-related protein A1 [3] = molecular target: T1, Bcl-2-related protein A1; test: Bfl-1 binding inhibitors, SAR follow-up, biochemical, fluorescence polarization (AID 1070)
Estrogen receptor beta [4] = molecular target: T2, Estrogen receptor beta (Homo sapiens, UniProt Q92731);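 note: recombinant ER-beta bound to coactivator SRC1 peptide in presence of estradiol agonist; inhibitors block coactivator peptide binding and lower the FRET signal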
Estrogen receptor beta [5] = molecular target: T2, Estrogen receptor beta; test: blockers of SRC-3 recruitment to ERβ – biochemical, ELISA, streptavidin-HRP readout, orthogonal assay, confirmation (AID 1060)
[6] = molecular target: Voltage-gated inwardly rectifying potassium channel KCNH2 (Homo sapiens, UniProt Q12809); conditions: Potency;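 note: confirmatory quantitative high-throughput screen measuring inhibition of hERG channel activity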
Danio rerio = test: In Vivo Angiogenesis Dose-Response Confirmation. [Related pubchem assays: 732 (Assay preceding this confirmatory assay.)]; assay type: functional, organism-based
[7] = molecular target: Serine/threonine-protein phosphatase PP1-alpha catalytic subunit (Homo sapiens, UniProt P62136); test: inhibition of protein phosphatase 1 activity – biochemical, fluorescence, dose response (AID 2394)
[8] = molecular target: Serine/threonine-protein phosphatase (Homo sapiens, UniProt Q9BPW0); test: inhibition of protein phosphatase 5 activity – biochemical, fluorescence, dose response (AID 2395)
Sequence of Serine/threonine-protein phosphatase (Q9BPW0 whole entry): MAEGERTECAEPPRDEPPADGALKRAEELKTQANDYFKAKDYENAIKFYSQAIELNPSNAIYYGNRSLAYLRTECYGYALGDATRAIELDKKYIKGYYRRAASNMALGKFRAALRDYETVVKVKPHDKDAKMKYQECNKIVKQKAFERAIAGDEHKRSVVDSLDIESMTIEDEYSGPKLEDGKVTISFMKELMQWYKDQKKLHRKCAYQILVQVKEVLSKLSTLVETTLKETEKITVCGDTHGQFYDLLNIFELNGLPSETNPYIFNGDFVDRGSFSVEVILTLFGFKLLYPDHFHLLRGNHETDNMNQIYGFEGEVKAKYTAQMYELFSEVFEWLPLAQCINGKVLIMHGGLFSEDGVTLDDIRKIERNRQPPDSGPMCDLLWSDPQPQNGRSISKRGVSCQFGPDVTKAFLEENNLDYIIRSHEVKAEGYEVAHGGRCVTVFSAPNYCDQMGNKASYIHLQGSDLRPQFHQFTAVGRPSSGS

T2 sequence (Q92731 whole entry): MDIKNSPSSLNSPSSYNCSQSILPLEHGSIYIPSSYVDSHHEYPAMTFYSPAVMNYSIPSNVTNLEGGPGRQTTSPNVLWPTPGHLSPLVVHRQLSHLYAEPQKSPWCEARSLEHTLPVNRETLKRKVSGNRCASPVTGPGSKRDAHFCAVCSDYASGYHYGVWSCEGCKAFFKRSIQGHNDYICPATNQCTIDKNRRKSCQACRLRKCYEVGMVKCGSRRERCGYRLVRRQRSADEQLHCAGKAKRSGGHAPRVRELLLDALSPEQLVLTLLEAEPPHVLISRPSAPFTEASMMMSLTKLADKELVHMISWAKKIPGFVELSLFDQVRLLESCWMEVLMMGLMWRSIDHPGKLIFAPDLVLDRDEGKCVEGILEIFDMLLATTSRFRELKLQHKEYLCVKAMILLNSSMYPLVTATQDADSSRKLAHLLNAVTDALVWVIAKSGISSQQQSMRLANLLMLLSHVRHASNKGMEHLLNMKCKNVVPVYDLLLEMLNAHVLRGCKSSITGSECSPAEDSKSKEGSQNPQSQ
Sequence of Voltage-gated inwardly rectifying potassium channel KCNH2 (Q12809 whole entry): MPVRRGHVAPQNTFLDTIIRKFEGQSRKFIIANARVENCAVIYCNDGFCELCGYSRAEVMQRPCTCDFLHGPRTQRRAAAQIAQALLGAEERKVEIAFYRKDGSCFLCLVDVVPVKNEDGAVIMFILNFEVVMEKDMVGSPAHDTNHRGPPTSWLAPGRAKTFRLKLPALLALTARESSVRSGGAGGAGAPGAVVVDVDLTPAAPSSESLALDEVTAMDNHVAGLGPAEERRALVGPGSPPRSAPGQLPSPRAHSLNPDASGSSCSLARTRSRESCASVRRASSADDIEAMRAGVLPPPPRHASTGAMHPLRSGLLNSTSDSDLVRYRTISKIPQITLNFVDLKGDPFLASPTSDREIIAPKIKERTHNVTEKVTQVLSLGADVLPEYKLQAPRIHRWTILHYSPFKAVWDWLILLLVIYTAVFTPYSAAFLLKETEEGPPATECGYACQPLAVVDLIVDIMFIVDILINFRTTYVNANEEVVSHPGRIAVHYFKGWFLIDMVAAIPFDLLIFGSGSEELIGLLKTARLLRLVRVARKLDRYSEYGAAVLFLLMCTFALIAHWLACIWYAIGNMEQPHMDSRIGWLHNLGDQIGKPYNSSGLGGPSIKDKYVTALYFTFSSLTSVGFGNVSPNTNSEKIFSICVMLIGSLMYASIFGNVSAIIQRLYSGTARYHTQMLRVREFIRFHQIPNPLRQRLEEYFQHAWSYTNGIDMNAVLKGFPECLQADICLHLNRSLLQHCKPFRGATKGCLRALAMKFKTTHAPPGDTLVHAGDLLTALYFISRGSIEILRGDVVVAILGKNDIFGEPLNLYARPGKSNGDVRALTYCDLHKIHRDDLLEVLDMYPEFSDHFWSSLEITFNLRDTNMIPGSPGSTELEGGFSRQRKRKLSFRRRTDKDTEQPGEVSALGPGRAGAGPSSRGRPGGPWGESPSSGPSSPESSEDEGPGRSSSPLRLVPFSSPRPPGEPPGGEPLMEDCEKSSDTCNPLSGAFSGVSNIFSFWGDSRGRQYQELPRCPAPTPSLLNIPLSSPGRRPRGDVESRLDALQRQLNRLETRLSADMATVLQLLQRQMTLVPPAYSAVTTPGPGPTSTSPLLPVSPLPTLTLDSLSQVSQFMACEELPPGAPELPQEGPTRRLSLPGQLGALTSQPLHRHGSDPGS
Sequence of Glyceraldehyde-3-phosphate dehydrogenase (P04406 whole entry): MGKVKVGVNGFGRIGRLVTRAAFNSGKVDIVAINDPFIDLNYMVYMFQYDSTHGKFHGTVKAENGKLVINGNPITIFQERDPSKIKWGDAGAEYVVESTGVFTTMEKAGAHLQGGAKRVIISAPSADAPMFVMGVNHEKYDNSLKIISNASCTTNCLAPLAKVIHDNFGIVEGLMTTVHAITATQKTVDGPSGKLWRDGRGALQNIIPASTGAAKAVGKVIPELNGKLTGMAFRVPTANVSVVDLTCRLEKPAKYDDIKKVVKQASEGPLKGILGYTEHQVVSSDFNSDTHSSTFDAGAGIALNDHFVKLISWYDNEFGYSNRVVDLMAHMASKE
Sequence of Serine/threonine-protein phosphatase PP1-alpha catalytic subunit (P62136 whole entry): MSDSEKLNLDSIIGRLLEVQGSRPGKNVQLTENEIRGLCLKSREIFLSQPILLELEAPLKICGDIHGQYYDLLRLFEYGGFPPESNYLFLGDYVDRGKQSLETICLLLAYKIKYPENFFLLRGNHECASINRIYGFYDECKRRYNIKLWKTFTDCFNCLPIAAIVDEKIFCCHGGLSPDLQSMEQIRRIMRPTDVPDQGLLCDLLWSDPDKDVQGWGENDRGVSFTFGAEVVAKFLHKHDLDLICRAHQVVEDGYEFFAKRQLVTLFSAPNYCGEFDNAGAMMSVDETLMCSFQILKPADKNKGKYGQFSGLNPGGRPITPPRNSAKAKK

O=C1C(Cl)=C(N2CCN(c3ccccc3)CC2)C(=O)N1c1ccc(Cl)c(Cl)c1
IC50 (Bcl-2-related protein A1 [1]): 4.13 µM (active)
IC50 [2]: > 100 µM (not active)
IC50 (Bcl-2-related protein A1 [3]): 4.95 µM (active)

CN1C(=O)CC(C(=O)O)S/C1=N/c1cc(Cl)c(O)c(Cl)c1 (centres undefined)
IC50 (Estrogen receptor beta [4]): 26.9 µM (active)
IC50 (Estrogen receptor beta [5]): > 109 µM (not active)

CN(C)c1ccc(/C=C2\C(=O)Nc3ccccc32)cc1
AC50 [6]: 14.1 µM (inconclusive)
IC50 (Danio rerio): > 100 µM (not active)

COC(=O)CCC(=O)OC1(C)C(=O)C=C2C=C(C3CC3)N(CC3CC3)C=C2C1=O (centres undefined)
IC50 [7]: 63.6 µM (not active)
IC50 [8]: 17 µM (not active)
